Activity calls are given as the source filed them. The calls are words filed in the database; no cut-off is given here.
Assays:
[1] = molecular target: von Hippel-Lindau disease tumor suppressor/Cullin-9 (Homo sapiens) (UniProt P40337+Q8IWT3); assay: Protac activity against VHL/cullin9 in human HT-29 cells harboring with BRAF V600E variant assessed as reduction in Cullin9 protein level at 0.1 uM after 10 hrs by LC-MS based Volcano plot analysis; assay type: cell-based
[2] = molecular target: T1, von Hippel-Lindau disease tumor suppressor/Dual specificity mitogen-activated protein kinase kinase 2 (Homo sapiens) (UniProt P36507+P40337); assay: Protac activity against VHL/MEK2 in human SK-MEL-28 cells harboring with BRAF V600E variant assessed as degradation of MEK2 at 0.1 to 0.3 uM after 4 hrs by Western blot analysis; assay type: cell-based
[3] = molecular target: T2, von Hippel-Lindau disease tumor suppressor/Dual specificity mitogen-activated protein kinase kinase 2/Dual specificity mitogen-activated protein kinase kinase 1 (Homo sapiens) (UniProt P36507+Q02750+P40337); assay: Protac activity against VHL/MEK1/2 in human COLO205 cells harboring with BRAF V600E variant assessed as reduction in phosphorylation of ERK at T202/Y204 residues after 24 hrs by Western blot analysis; assay type: cell-based
[4] = molecular target: T3, von Hippel-Lindau disease tumor suppressor/Dual specificity mitogen-activated protein kinase kinase 1 (Homo sapiens) (UniProt Q02750+P40337); assay: Protac activity against VHL/MEK1 in human HT-29 cells harboring with BRAF V600E variant assessed as degradation of MEK1 by measuring reduction in MEK1 protein level at 0.1 to 0.3 uM after 2 hrs by Western blot analysis; assay type: cell-based
[5] = molecular target: T2, von Hippel-Lindau disease tumor suppressor/Dual specificity mitogen-activated protein kinase kinase 2/Dual specificity mitogen-activated protein kinase kinase 1 (Homo sapiens); assay: (§1) Protac activity against VHL/MEK1/2 in human HT-29 cells harboring with BRAF V600E variant assessed as phosphorylation of ERK at T202/Y204 residues at 0.3 uM pretreated with VHL ligand, VH 032 for 2 hrs followed by incubation with compound for 10 hrs by Western blot analysis; assay type: cell-based
[6] = molecular target: T2, von Hippel-Lindau disease tumor suppressor/Dual specificity mitogen-activated protein kinase kinase 2/Dual specificity mitogen-activated protein kinase kinase 1 (Homo sapiens); assay: as §1, with “SK-MEL-28” for “HT-29”, “NEDD8-activating enzyme inhibitor, MLN4924” for “VHL ligand, VH 032”; assay type: cell-based
[7] = molecular target: T3, von Hippel-Lindau disease tumor suppressor/Dual specificity mitogen-activated protein kinase kinase 1 (Homo sapiens); assay: Protac activity against VHL/MEK1 in human SK-MEL-28 cells harboring with BRAF V600E variant assessed as degradation of MEK1 by measuring reduction in MEK1 protein level at 0.3 uM after 4 hrs by Western blot analysis relative to control; assay type: cell-based; design: scale not given: the % may be the effect or the level left
[8] = molecular target: T3, von Hippel-Lindau disease tumor suppressor/Dual specificity mitogen-activated protein kinase kinase 1 (Homo sapiens); assay: Protac activity against VHL/MEK1 in human COLO205 cells harboring with BRAF V600E variant assessed as degradation of MEK1 at 3 to 5 uM after 24 hrs by Western blot analysis; assay type: cell-based
[9] = molecular target: T2, von Hippel-Lindau disease tumor suppressor/Dual specificity mitogen-activated protein kinase kinase 2/Dual specificity mitogen-activated protein kinase kinase 1 (Homo sapiens); assay: Protac activity against VHL/MEK1/2 in human UACC257 cells harboring with BRAF V600E variant assessed as reduction in phosphorylation of ERK at T202/Y204 residues after 24 hrs by Western blot analysis; assay type: cell-based
[10] = molecular target: T3, von Hippel-Lindau disease tumor suppressor/Dual specificity mitogen-activated protein kinase kinase 1 (Homo sapiens); assay: (§2) Protac activity against VHL/MEK1 in human HT-29 cells harboring with BRAF V600E variant assessed as degradation of MEK1 by measuring MEK1 protein level at 0.3 uM pretreated with NEDD8-activating enzyme inhibitor, MLN4924 for 2 hrs followed by incubation with compound for 10 hrs by Western blot analysis; assay type: cell-based
[11] = molecular target: T2, von Hippel-Lindau disease tumor suppressor/Dual specificity mitogen-activated protein kinase kinase 2/Dual specificity mitogen-activated protein kinase kinase 1 (Homo sapiens); assay: Protac activity against VHL/MEK1/2 in human SK-MEL-28 cells harboring with BRAF V600E variant assessed as reduction in phosphorylation of ERK at T202/Y204 residues at 0.1 to 0.3 uM by Western blot analysis; assay type: cell-based; conditions: TDE = time-dependent effect
[12] = molecular target: von Hippel-Lindau disease tumor suppressor/Dual specificity mitogen-activated protein kinase kinase 2 (Homo sapiens, UniProt P36507+P40337, V600E); assay: (§3) Protac activity against VHL/MEK2 in human HT-29 cells harboring BRAF V600E variant assessed as degradation of MEK2 after 24 hrs by Western blot analysis; assay type: cell-based
[13] = molecular target: T1, von Hippel-Lindau disease tumor suppressor/Dual specificity mitogen-activated protein kinase kinase 2 (Homo sapiens); assay: as §3; assay type: cell-based
[14] = molecular target: T1, von Hippel-Lindau disease tumor suppressor/Dual specificity mitogen-activated protein kinase kinase 2 (Homo sapiens); assay: Protac activity against VHL/MEK2 in human SK-MEL-28 cells harboring with BRAF V600E variant assessed as degradation of MEK2 at 0.1 to 0.3 uM by Western blot analysis; assay type: cell-based; conditions: TDE = time-dependent effect
[15] = molecular target: T2, von Hippel-Lindau disease tumor suppressor/Dual specificity mitogen-activated protein kinase kinase 2/Dual specificity mitogen-activated protein kinase kinase 1 (Homo sapiens); assay: Protac activity against VHL/MEK1/2 in human HT-29 cells harboring with BRAF V600E variant assessed as reduction in phosphorylation of MEK at S218/222 residues at 0.1 to 0.3 after >= 2 hrs by Western blot analysis; assay type: cell-based
[16] = molecular target: T1, von Hippel-Lindau disease tumor suppressor/Dual specificity mitogen-activated protein kinase kinase 2 (Homo sapiens); assay: Protac activity against VHL/MEK2 in human HT-29 cells harboring with BRAF V600E variant assessed as degradation of MEK2 at 0.1 to 0.3 uM after 4 hrs by Western blot analysis; assay type: cell-based
[17] = molecular target: T1, von Hippel-Lindau disease tumor suppressor/Dual specificity mitogen-activated protein kinase kinase 2 (Homo sapiens); assay: Protac activity against VHL/MEK2 in human HT-29 cells harboring BRAF V600E variant assessed as degradation of MEK2 by measuring reduction in MEK2 protein level at 0.5 uM after 24 hrs by Western blot analysis relative to control; assay type: cell-based; design: scale not given: the % may be the effect or the level left
UACC-257 = assay: Effect on total ERK protein expression in human UACC257 cells at 0.001 to 5 uM after 24 hrs by Western blot analysis; assay type: functional, cell-based
[18] = molecular target: T1, von Hippel-Lindau disease tumor suppressor/Dual specificity mitogen-activated protein kinase kinase 2 (Homo sapiens); assay: as §2, with “VHL/MEK2” for “VHL/MEK1”, “MEK2” for “MEK1”; assay type: cell-based
[19] = molecular target: T1, von Hippel-Lindau disease tumor suppressor/Dual specificity mitogen-activated protein kinase kinase 2 (Homo sapiens); assay: Protac activity against VHL/MEK2 in human SK-MEL-28 cells harboring with BRAF V600E variant assessed as degradation of MEK2 at 3 to 5 uM after 24 hrs by Western blot analysis; assay type: cell-based
[20] = molecular target: T3, von Hippel-Lindau disease tumor suppressor/Dual specificity mitogen-activated protein kinase kinase 1 (Homo sapiens); assay: Protac activity against VHL/MEK1 in human HT-29 cells harboring with BRAF V600E variant assessed as degradation of MEK1 at 0.1 to 0.3 uM after 4 hrs by Western blot analysis; assay type: cell-based
[21] = molecular target: T3, von Hippel-Lindau disease tumor suppressor/Dual specificity mitogen-activated protein kinase kinase 1 (Homo sapiens); assay: Protac activity against VHL/MEK1 in human HT-29 cells harboring with BRAF V600E variant assessed as degradation of MEK1 by measuring reduction in MEK1 protein level at 0.1 uM after 10 hrs by LC-MS based Volcano plot analysis; assay type: cell-based
[22] = molecular target: T3, von Hippel-Lindau disease tumor suppressor/Dual specificity mitogen-activated protein kinase kinase 1 (Homo sapiens); assay: (§4) Protac activity against VHL/MEK1 in human HT-29 cells harboring BRAF V600E variant assessed as degradation of MEK1 after 24 hrs by Western blot analysis; assay type: cell-based
[23] = molecular target: T4, von Hippel-Lindau disease tumor suppressor/Dual specificity mitogen-activated protein kinase kinase 1 (Homo sapiens, UniProt Q02750+P40337, V600E); assay: as §4; assay type: cell-based
[24] = molecular target: T2, von Hippel-Lindau disease tumor suppressor/Dual specificity mitogen-activated protein kinase kinase 2/Dual specificity mitogen-activated protein kinase kinase 1 (Homo sapiens); assay: Protac activity against VHL/MEK1/2 in human COLO205 cells harboring with BRAF V600E variant assessed as reduction in phosphorylation of MEK at S218/222 residues after 24 hrs by Western blot analysis; assay type: cell-based
[25] = Plasma concentration in Swiss albino mouse at 50 mg/kg, ip measured after 8 hrs by LC-MS/MS analysis; assay type: ADME, organism-based
[26] = molecular target: T3, von Hippel-Lindau disease tumor suppressor/Dual specificity mitogen-activated protein kinase kinase 1 (Homo sapiens); assay: Protac activity against VHL/MEK1 in human HT-29 cells harboring with BRAF V600E variant assessed as degradation of MEK1 by measuring MEK1 protein level at 0.3 uM pretreated with MEK1/2 inhibitor, PD0325901 for 2 hrs followed by incubation with compound for 10 hrs by Western blot analysis; assay type: cell-based
[27] = molecular target: T3, von Hippel-Lindau disease tumor suppressor/Dual specificity mitogen-activated protein kinase kinase 1 (Homo sapiens); assay: (§5) Protac activity against VHL/MEK1 in human UACC257 cells harboring BRAF V600E variant assessed as degradation of MEK1 after 24 hrs by Western blot analysis; assay type: cell-based
[28] = molecular target: T4, von Hippel-Lindau disease tumor suppressor/Dual specificity mitogen-activated protein kinase kinase 1; assay: as §5; assay type: cell-based

T2 sequence (P36507 whole entry, looked up): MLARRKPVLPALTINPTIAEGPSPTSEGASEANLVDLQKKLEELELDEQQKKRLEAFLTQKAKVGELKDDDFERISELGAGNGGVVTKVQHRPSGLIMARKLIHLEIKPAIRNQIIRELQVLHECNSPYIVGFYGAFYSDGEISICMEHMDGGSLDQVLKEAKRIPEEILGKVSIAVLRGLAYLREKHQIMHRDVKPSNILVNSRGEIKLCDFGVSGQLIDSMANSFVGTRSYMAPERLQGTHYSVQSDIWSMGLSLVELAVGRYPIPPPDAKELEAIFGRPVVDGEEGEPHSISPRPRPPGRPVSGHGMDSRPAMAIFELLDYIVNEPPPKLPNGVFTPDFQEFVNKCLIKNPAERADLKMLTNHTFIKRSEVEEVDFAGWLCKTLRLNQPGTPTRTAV
T2 sequence (P40337 whole entry, looked up): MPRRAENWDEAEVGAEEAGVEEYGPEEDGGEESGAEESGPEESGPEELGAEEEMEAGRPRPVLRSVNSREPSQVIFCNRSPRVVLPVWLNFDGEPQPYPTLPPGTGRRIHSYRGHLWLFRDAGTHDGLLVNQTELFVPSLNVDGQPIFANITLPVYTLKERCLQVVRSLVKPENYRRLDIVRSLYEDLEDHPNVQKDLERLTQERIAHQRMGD
T2 sequence (Q02750 whole entry, looked up): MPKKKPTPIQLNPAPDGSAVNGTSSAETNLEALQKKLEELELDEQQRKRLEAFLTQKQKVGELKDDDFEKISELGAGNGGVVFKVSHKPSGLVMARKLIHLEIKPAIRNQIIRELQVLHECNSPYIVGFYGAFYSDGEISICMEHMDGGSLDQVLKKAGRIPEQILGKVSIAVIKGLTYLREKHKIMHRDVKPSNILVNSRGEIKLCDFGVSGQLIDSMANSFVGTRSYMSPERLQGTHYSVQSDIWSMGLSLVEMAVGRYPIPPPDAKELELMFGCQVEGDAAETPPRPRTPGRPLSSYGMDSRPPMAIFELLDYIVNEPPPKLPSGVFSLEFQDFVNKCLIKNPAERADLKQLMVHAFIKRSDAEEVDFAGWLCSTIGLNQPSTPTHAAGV
T1 sequence (P36507 whole entry, looked up): as the sequence (P36507 whole entry, looked up) above
T1 sequence (P40337 whole entry, looked up): as the sequence (P40337 whole entry, looked up) above
T3 sequence (P40337 whole entry, looked up): as above
T3 sequence (Q02750 whole entry, looked up): as the sequence (Q02750 whole entry, looked up) above
T4 sequence (P40337 whole entry, looked up, stated change not applied): as the sequence (P40337 whole entry, looked up) above
T4 sequence (Q02750 whole entry, looked up, stated change not applied): as the sequence (Q02750 whole entry, looked up) above
Chain of von Hippel-Lindau disease tumor suppressor/Dual specificity mitogen-activated protein kinase kinase 2 (P36507 whole entry, looked up, stated change not applied): as the sequence (P36507 whole entry, looked up) above
Chain of von Hippel-Lindau disease tumor suppressor/Dual specificity mitogen-activated protein kinase kinase 2 (P40337 whole entry, looked up, stated change not applied): as the sequence (P40337 whole entry, looked up) above

Question: For `Cc1ncsc1-c1ccc([C@H](C)NC(=O)[C@@H]2C[C@@H](O)CN2C(=O)[C@@H](NC(=O)CCCCCCCCCCNCCCONC(=O)c2ccc(F)c(F)c2Nc2ccc(I)cc2F)C(C)(C)C)cc1`, which Activity [1] is on record?
Answer: Its Activity is “Active”.

Question: And the Activity [2]?
Answer: Its Activity is “Active”.

Question: And the Activity [3]?
Answer: The Activity was “Dose-dependent effect”.

Question: What about the Activity [4] of the same compound?
Answer: The Activity was “Active”.

Question: And the Activity [5]?
Answer: Its Activity is “inactive”.

Question: And the Activity [6]?
Answer: Its Activity is “inactive”.

Question: What about the Activity [7] of the same compound?
Answer: Its Activity is over 50%.

Question: What about the Activity [8] of the same compound?
Answer: The Activity was “Active”.

Question: And the Activity [9]?
Answer: The Activity was “Dose-dependent effect”.

Question: And the Activity [10]?
Answer: Its Activity is “inactive”.

Question: What about the Activity [11] of the same compound?
Answer: The Activity was “Tde”.

Question: What about the DC50 [12] of the same compound?
Answer: Its DC50 is 17 nM.

Question: And the Activity [13]?
Answer: The Activity was “Dose-dependent effect”.

Question: What about the Activity [14] of the same compound?
Answer: Its Activity is “Tde”.

Question: And the Activity [15]?
Answer: The Activity was “Active”.

Question: And the Activity [16]?
Answer: The Activity was “Active”.

Question: And the Activity [17]?
Answer: The Activity was over 80%.

Question: And the Activity (UACC-257)?
Answer: Its Activity is “inactive”.

Question: And the Activity [18]?
Answer: The Activity was “inactive”.

Question: What about the Activity [19] of the same compound?
Answer: Its Activity is “Active”.

Question: What about the Activity [20] of the same compound?
Answer: The Activity was “Active”.

Question: And the Activity [21]?
Answer: The Activity was “Active”.

Question: What about the Activity [22] of the same compound?
Answer: The Activity was “Dose-dependent effect”.

Question: And the DC50 [23]?
Answer: The DC50 was 31 nM.

Question: What about the Activity [24] of the same compound?
Answer: Its Activity is “Dose-dependent effect”.

Question: And the concentration at 8 h [25]?
Answer: Its concentration at 8 h is 710 nM.

Question: And the Activity [26]?
Answer: The Activity was “inactive”.

Question: And the Activity [27]?
Answer: Its Activity is “Dose-dependent effect”.

Question: What about the DC50 [28] of the same compound?
Answer: Its DC50 is 56 nM.
